Laboratory results as given in the NIST ThermoML archive (doi:10.1021/je060271a).
Where “and” joins values, the source holds several entries; their conditions need not be identical. Equal values may be shown once. ± gives the expanded uncertainty stated by the source.

Details: 343.15 K, Liquid, Vibrating tube method

Q: What does the source list for `CCCCCC(=O)OCC(COC(=O)CCCCC)(COC(=O)CCCCC)COC(=O)CCCCC` [pentaerythritol tetrahexanoate]?
A: mass density (398.2 kPa): 957.4 ± 1.2 kg/m3; mass density (398.4 kPa): 957.4 ± 1.2 kg/m3; mass density (399.3 kPa): 957.3 ± 1.2 kg/m3; mass density (399.8 kPa): 957.5 ± 1.2 kg/m3; mass density (400.1 kPa): 957.4 ± 1.2 kg/m3; mass density (400.6 kPa): 957.2 ± 1.2 kg/m3; mass density (400.8 kPa): 957.4 ± 1.2 kg/m3; mass density (401.5 kPa): 957.5 ± 1.2 kg/m3; mass density (402 kPa): 957.5 ± 1.2 kg/m3; mass density (402.4 kPa): 957.3 ± 1.2 kg/m3; mass density (402.9 kPa): 957.6 ± 1.2 kg/m3; mass density (403.4 kPa): 957.4 ± 1.2 kg/m3; mass density (403.9 kPa): 957.4 ± 1.2 kg/m3; mass density (404.3 kPa): 957.5 ± 1.2 kg/m3; mass density (404.8 kPa): 957.4 ± 1.2 kg/m3; mass density (407.4 kPa): 957.3 ± 1.2 kg/m3; mass density (407.9 kPa): 957.4 ± 1.2 kg/m3; mass density (408.6 kPa): 957.4 ± 1.2 kg/m3; mass density (409 kPa): 957.3 ± 1.2 kg/m3; mass density (409.2 kPa): 957.4 ± 1.2 kg/m3; mass density (409.9 kPa): 957.3 ± 1.2 kg/m3; mass density (410.4 kPa): 957.3 ± 1.2 kg/m3; mass density (413 kPa): 957.4 ± 1.2 kg/m3; mass density (413.5 kPa): 957.5 ± 1.2 kg/m3; mass density (413.9 kPa): 957.4 ± 1.2 kg/m3; mass density (414.4 kPa): 957.4 ± 1.2 kg/m3; mass density (414.9 kPa): 957.3 ± 1.2 kg/m3; mass density (415.1 kPa): 957.5 ± 1.2 kg/m3; mass density (418 kPa): 957.4 ± 1.2 kg/m3; mass density (418.5 kPa): 957.5 ± 1.2 kg/m3; mass density (419.6 kPa): 957.4 ± 1.2 kg/m3; mass density (419.8 kPa): 957.4 ± 1.2 kg/m3; mass density (420.3 kPa): 957.3 ± 1.2 kg/m3; mass density (421.3 kPa): 957.3 ± 1.2 kg/m3; mass density (421.5 kPa): 957.3 ± 1.2 kg/m3; mass density (423.4 kPa): 957.3 ± 1.2 kg/m3; mass density (423.9 kPa): 957.3 ± 1.2 kg/m3; mass density (424.1 kPa): 957.4 ± 1.2 kg/m3; mass density (425.1 kPa): 957.3 ± 1.2 kg/m3; mass density (425.5 kPa): 957.4 ± 1.2 kg/m3; mass density (425.7 kPa): 957.4 ± 1.2 kg/m3; mass density (426.2 kPa): 957.4 ± 1.2 kg/m3; mass density (426.7 kPa): 957.3 ± 1.2 kg/m3; mass density (427.2 kPa): 957.3 ± 1.2 kg/m3; mass density (427.9 kPa): 957.5 ± 1.2 kg/m3; mass density (428.4 kPa): 957.4 ± 1.2 kg/m3; mass density (429 kPa): 957.5 ± 1.2 kg/m3; mass density (429.5 kPa): 957.4 ± 1.2 kg/m3; mass density (429.8 kPa): 957.5 ± 1.2 kg/m3; mass density (430.4 kPa): 957.5 ± 1.2 kg/m3; mass density (430.9 kPa): 957.4 ± 1.2 kg/m3; mass density (431.6 kPa): 957.4 ± 1.2 kg/m3 and 957.5 ± 1.2 kg/m3; mass density (431.9 kPa): 957.5 ± 1.2 kg/m3; mass density (432.6 kPa): 957.4 ± 1.2 kg/m3; mass density (432.8 kPa): 957.5 ± 1.2 kg/m3; mass density (433 kPa): 957.3 ± 1.2 kg/m3; mass density (435 kPa): 957.5 ± 1.2 kg/m3; mass density (437.5 kPa): 957.5 ± 1.2 kg/m3; mass density (440.8 kPa): 957.4 ± 1.2 kg/m3; mass density (443.6 kPa): 957.3 ± 1.2 kg/m3; mass density (446.3 kPa): 957.4 ± 1.2 kg/m3; mass density (449.5 kPa): 957.5 ± 1.2 kg/m3; mass density (452.2 kPa): 957.5 ± 1.2 kg/m3; mass density (455.6 kPa): 957.4 ± 1.2 kg/m3; mass density (458.5 kPa): 957.4 ± 1.2 kg/m3; mass density (461.8 kPa): 957.4 ± 1.2 kg/m3; mass density (464.6 kPa): 957.3 ± 1.2 kg/m3; mass density (468.2 kPa): 957.4 ± 1.2 kg/m3; mass density (471.5 kPa): 957.4 ± 1.2 kg/m3; mass density (474.8 kPa): 957.4 ± 1.2 kg/m3; mass density (477.4 kPa): 957.5 ± 1.2 kg/m3; mass density (481.3 kPa): 957.6 ± 1.2 kg/m3; mass density (484.6 kPa): 957.4 ± 1.2 kg/m3; mass density (487.7 kPa): 957.3 ± 1.2 kg/m3; mass density (491.5 kPa): 957.4 ± 1.2 kg/m3; mass density (525.8 kPa): 957.3 ± 1.2 kg/m3; mass density (529.4 kPa): 957.6 ± 1.2 kg/m3; mass density (533.4 kPa): 957.5 ± 1.2 kg/m3; mass density (538.1 kPa): 957.5 ± 1.2 kg/m3; mass density (545.9 kPa): 957.4 ± 1.2 kg/m3; mass density (550.2 kPa): 957.6 ± 1.2 kg/m3; mass density (555.3 kPa): 957.6 ± 1.2 kg/m3; mass density (559.3 kPa): 957.5 ± 1.2 kg/m3; mass density (564 kPa): 957.5 ± 1.2 kg/m3; mass density (569 kPa): 957.5 ± 1.2 kg/m3; mass density (573.7 kPa): 957.5 ± 1.2 kg/m3; mass density (578 kPa): 957.5 ± 1.2 kg/m3; mass density (584 kPa): 957.6 ± 1.2 kg/m3; mass density (588.1 kPa): 957.6 ± 1.2 kg/m3; mass density (593 kPa): 957.5 ± 1.2 kg/m3; mass density (603.9 kPa): 957.5 ± 1.2 kg/m3; mass density (609 kPa): 957.6 ± 1.2 kg/m3; mass density (614.9 kPa): 957.5 ± 1.2 kg/m3; mass density (620.1 kPa): 957.6 ± 1.2 kg/m3; mass density (625 kPa): 957.5 ± 1.2 kg/m3; mass density (631.2 kPa): 957.5 ± 1.2 kg/m3; mass density (636.6 kPa): 957.6 ± 1.2 kg/m3; mass density (641.6 kPa): 957.6 ± 1.2 kg/m3; mass density (647 kPa): 957.7 ± 1.2 kg/m3; mass density (653.6 kPa): 957.6 ± 1.2 kg/m3; mass density (659.4 kPa): 957.5 ± 1.2 kg/m3; mass density (666.5 kPa): 957.5 ± 1.2 kg/m3; mass density (672.6 kPa): 957.7 ± 1.2 kg/m3; mass density (678.3 kPa): 957.5 ± 1.2 kg/m3; mass density (684.7 kPa): 957.7 ± 1.2 kg/m3; mass density (691 kPa): 957.6 ± 1.2 kg/m3; mass density (697.2 kPa): 957.5 ± 1.2 kg/m3; mass density (704.9 kPa): 957.6 ± 1.2 kg/m3; mass density (711.5 kPa): 957.6 ± 1.2 kg/m3; mass density (719.3 kPa): 957.5 ± 1.2 kg/m3; mass density (725.9 kPa): 957.6 ± 1.2 kg/m3; mass density (732.7 kPa): 957.6 ± 1.2 kg/m3; mass density (739.6 kPa): 957.6 ± 1.2 kg/m3; mass density (747.6 kPa): 957.6 ± 1.2 kg/m3; mass density (786 kPa): 957.7 ± 1.2 kg/m3; mass density (793.7 kPa): 957.6 ± 1.2 kg/m3; mass density (801.8 kPa): 957.7 ± 1.2 kg/m3; mass density (809.8 kPa): 957.8 ± 1.2 kg/m3; mass density (818 kPa): 957.6 ± 1.2 kg/m3; mass density (828.1 kPa): 957.7 ± 1.2 kg/m3; mass density (836.4 kPa): 957.7 ± 1.2 kg/m3; mass density (845.3 kPa): 957.6 ± 1.2 kg/m3; mass density (855.7 kPa): 957.8 ± 1.2 kg/m3; mass density (864.5 kPa): 957.8 ± 1.2 kg/m3; mass density (873.7 kPa): 957.7 ± 1.2 kg/m3; mass density (883.3 kPa): 957.6 ± 1.2 kg/m3; mass density (894.6 kPa): 957.6 ± 1.2 kg/m3; mass density (904.5 kPa): 957.9 ± 1.2 kg/m3; mass density (915.8 kPa): 957.7 ± 1.2 kg/m3; mass density (967 kPa): 957.8 ± 1.2 kg/m3; mass density (977.1 kPa): 957.8 ± 1.2 kg/m3; mass density (989.1 kPa): 957.8 ± 1.2 kg/m3; mass density (999.5 kPa): 957.8 ± 1.2 kg/m3; mass density (1011.5 kPa): 957.9 ± 1.2 kg/m3; mass density (1022.2 kPa): 957.7 ± 1.2 kg/m3; mass density (1032.7 kPa): 958 ± 1.2 kg/m3; mass density (1043.4 kPa): 957.9 ± 1.2 kg/m3; mass density (1053.7 kPa): 957.9 ± 1.2 kg/m3; mass density (1066.4 kPa): 958 ± 1.2 kg/m3; mass density (1076.6 kPa): 957.9 ± 1.2 kg/m3; mass density (1087.5 kPa): 957.9 ± 1.2 kg/m3; mass density (1100.4 kPa): 957.8 ± 1.2 kg/m3; mass density (1110.6 kPa): 958 ± 1.2 kg/m3; mass density (1121.6 kPa): 957.9 ± 1.2 kg/m3
